Laboratory results taken from patent publication US20230149432A1, “Human Milk Oligosaccharides for Improving Resistance of Organism Against Staphylococcus Aureus Infection” (Inner Mongolia Yili Industrial Group Co., Ltd., priority 2020, published 2023).

Assays:
[1] = tested on: Staphylococcus aureus ATCC25923; assay: Nematode infection model and lifespan assay (survival of C. elegans infected by Staphylococcus aureus); assay type: in vivo, Caenorhabditis elegans; details: for dose-effect relationship of protection of nematode survival: doses up to 30 mg/mL
Method: Human milk oligosaccharide solutions were prepared with distilled water and incubated in Petri dishes containing a nematode growth medium at different final concentrations (1, 10, and 30 mg/mL, respectively). To better determine the range of the ideal concentration, a preliminary screening on the dose-effect relationship of 2′-FL was first performed, and the 2′-FL concentrations used were 0.001, 0.01, 0.1, 1 and 10 mg/mL. For the HMO compositions, included were a test concentration of 8 mg/mL and a 15 mg/mL, respectively, after the addition into the nematode growth medium.
Age-consistent nematodes were obtained and cultured in Petri dishes containing nematode agar media (nematode media containing E. coli OP50 as food) with different doses of HMO (1, 8, 10, 15, 30 mg/mL) for co-culture. After the nematodes came into adulthood, they were transferred to petri dishes inoculated with Staphylococcus aureus ATCC25923 (supplemented at approximately 10^8 to 10^9CFU/mL) to simulate the condition of infection by Staphylococcus aureus. The intervening substances (HMO) added in the infection stage of each group were the same as those in the culture stage. Two controls were used, one without the pathogen (C. elegans dish containing E. coli OP50) and one with Staphylococcus aureus infection without any intervention (dish with Staphylococcus aureus only). In addition, a group in which an intervening substance was added in the culture phase and no intervention in the infection phase, and a group in which the intervention substance was not added in the cultivation phase but added in the infection phase were set up.
Several days into the culture of the nematodes, their survival rate was counted on a daily basis. […] Two independent assays were carried out for each condition (that is, unless otherwise specified, the experimental data in the examples were the results of two independent experiments).
Statistical comparative analysis of survival curves was performed, and log rank survival significance analysis was performed using the GraphPad Prism 4 or GraphPad Prism 9 statistical software package. One-way ANOVA was used to analyze for significant differences in survival rates among the groups on the third or fifth day of infection. For the comparison of the groups, an asterisk*represents the degree of the significant difference, with ****indicating P<0.0001, and ***indicating P<0.001. NS means not significant.

[2] = tested on: Staphylococcus aureus ATCC25923; assay: Disc diffusion bacteriostatic zone experiment; assay type: cell-based; details: positive control, 200 μg/mL; 37° C., 18 hours
Method: In order to determine whether the tested materials themselves have an antibacterial effect, a bacteriostatic zone experiment for disk diffusion was carried out. Discs were prepared with sterile filter paper impregnated with the tested HMO materials (10 mg/mL, 30 mg/mL), and the discs were dried overnight under sterile conditions. Staphylococcus aureus ATCC25923 (1.0×10^6CFU/mL) was spread evenly on the surface of a NGM agar plate, and then the discs were placed on the surface of the inoculated agar plate petri dish. Gentamicin (200 μg/mL) was used as a positive control. All dishes were incubated at 37° C. for 18 hours.
In order to investigate whether the protective effects of individual HMOs or their compositions against Staphylococcus aureus infection, as presented in previous tests, were derived from direct bactericidal or bacteriostatic function, a test was carried out in which the test material was incubated with the bacteria population and observed whether an bacteriostatic zone of was formed. As shown in the figure, at two different concentration (left: 10 mg/mL, right: 30 mg/mL), none of the human milk oligosaccharides alone formed a transparent annular bacteriostatic zone around the inoculation site. […]

[3] = 10 mg/mL, vs infected control without intervention
[4] = 30 mg/mL, vs infected control without intervention
[5] = 1 mg/mL, vs infected control without intervention

Row | Molecule | effect on nematode survival rate after Staphylococcus aureus infection [1, 3] | effect on lifespan of nematodes after Staphylococcus aureus infection ([1]; 15 mg/mL) | effect on nematode survival rate after Staphylococcus aureus infection ([1]; 15 mg/mL, another batch of experiments) | effect on nematode survival rate after Staphylococcus aureus infection [1, 4] | effect on nematode survival rate after Staphylococcus aureus infection ([1]; doses at 1 mg/mL or less, survival curve vs infected control without intervention) | dose-effect relationship of protection of nematode survival [1] | effect on nematode survival rate after Staphylococcus aureus infection [1, 5] | survival rate of nematodes compared with 2′-FL ([1]; infection for 3 days, 3-FL 10 mg/mL vs 2′-FL 30 mg/mL) | protection of nematodes compared with 2′-FL at the same dose ([1]; same dose, infection for 3 days) | survival rate of nematodes ([1]; under protection of 6′-SL, 10 or 30 mg/mL, infected for 3 days) | formation of a transparent annular bacteriostatic zone [2]
1 | 2′-fucosyllactose [2′-FL] | considerable increase in nematode survival rate which was significant (P<0.0001) | significantly prolongs the lifespan of nematodes | significantly improves the survival rate of nematodes | the protective effect was significantly increased, and the effect was significant (P<0.0001) | did not show any effects | dose-dependent and optimal at 30 mg/mL |  |  |  |  | 
2 | 3-fucosyllactose [Composition 3-FL] | better protective function (P<0.0001) |  |  | better protective function (P<0.0001) |  | greater protection shown at higher doses | no effect | the same effect was achieved with 3-FL at 10 mg/mL as that with 2′-FL at 30 mg/mL | more effective in protecting nematodes from Staphylococcus aureus infection than 2′-FL |  | 
3 | CC(=O)N[C@H]1[C@H]([C@H](O)[C@H](O)CO)O[C@@](O[C@H]2[C@@H](O)[C@@H](CO)O[C@@H](O[C@H]3[C@H](O)[C@@H](O)C(O)O[C@@H]3CO)[C@@H]2O)(C(=O)O)C[C@@H]1O (stereo partly shown) [3′-SL, 3′-sialyllactose] | no significant effect was observed |  |  | no significant effect was observed |  |  | no significant effect was observed |  |  |  | 
4 | CC(=O)N[C@H]1[C@H]([C@H](O)[C@H](O)CO)O[C@@](OC[C@H]2O[C@@H](O[C@H]3[C@H](O)[C@@H](O)[C@H](O)O[C@@H]3CO)[C@H](O)[C@@H](O)[C@H]2O)(C(=O)O)C[C@@H]1O [6′-SL, 6′-sialyllactose] | significantly improved |  |  | significantly improved |  | has a dose-effect relationship | not greatly improved |  |  | up to 75% | 
5 | CC(=O)N[C@H]1[C@H](O[C@H]2[C@@H](O)[C@@H](CO)O[C@@H](O[C@H]3[C@H](O)[C@@H](O)C(O)O[C@@H]3CO)[C@@H]2O)O[C@H](CO)[C@@H](O)[C@@H]1O[C@@H]1O[C@H](CO)[C@H](O)[C@H](O)[C@H]1O (stereo partly shown) [LNT, Lacto-N-Tetraose] | significantly improved |  |  | significantly improved |  | has a dose-effect relationship | not greatly improved |  |  |  | 
6 | Gentamicin |  |  |  |  |  |  |  |  |  |  | showed a bacteriostatic effect
